The target in test [1] is D30N mutant HIV protease (Human immunodeficiency virus type 1 group M subtype B, UniProt P03367, D530N). The test can be described thus: Effect of D30N protease mutation on inhibitor binding.
Test [2] concerns highly cross-resistant clinical HIV-1 strains. Kind of test: In vitro activity against highly PI-resistant clinical HIV-1 strains from AIDS patients. Format: cell-based. Conditions: for potency against the multidrug resistant strains of HIV: multidrug resistant vs wild type strains. On the procedure:
The sensitivities of HIV-1LAI, HIV-1Ba-L, HIV-2EHO and the primary HIV-1 isolates against various drugs were determined as previously described with minor modifications (Shiraska et al., Proc. Natl. Acad. Sci. USA, 92, 2398-2402 (1995)).

The subject of test [3] is HIV-1UIC-P62. The test can be described thus: Sensitivity of compound 1-selected HIV-1 (passage 62) to PIs. Conditions: for sensitivity compared with the parental HIV-1NL4-3: HIV-1UIC-P62; for IC50 fold greater than that of HIV-1NL4-3: HIV-1UIC-P62 (passage 62 with 2 μM 1) vs parental HIV-1NL4-3. Type of test: cell-based.

On to `COc1ccc(S(=O)(=O)N(CC(C)C)C[C@@H](O)[C@H](Cc2ccccc2)NC(=O)O[C@H]2CO[C@H]3OCC[C@H]32)cc1` [Compound 1], for which the “effect of D30N mutation on binding” value in test [1] was “no effect”.

Take `CC(C)CN(C[C@@H](O)[C@H](Cc1ccccc1)NC(=O)O[C@H]1CCOC1)S(=O)(=O)c1ccc(N)cc1` [Compound 2, Amprenavir]: the “potency against the multidrug resistant strains of HIV” value (from here on “potency”) in test [2] is listed as “dramatically less potent”.

Consider `CC(C)(C)NC(=O)[C@@H]1C[C@@H]2CCCC[C@@H]2CN1C[C@@H](O)[C@H](Cc1ccccc1)NC(=O)[C@H](CC(N)=O)NC(=O)c1ccc2ccccc2n1` [Compound 4, Saquinavir], for which, in test [2] (compared to wild-type clinical strain HIV-1ERS104pre), the “level of resistance of the clinical strains” value is 3-31 fold. The “potency” value in test [2] was “dramatically less potent”. In addition, in test [3], the “sensitivity compared with the parental HIV-1NL4-3” value is listed as “as sensitive”.

Consider `CC(C)c1nc(CN(C)C(=O)N[C@H](C(=O)N[C@@H](Cc2ccccc2)C[C@H](O)[C@H](Cc2ccccc2)NC(=O)OCc2cncs2)C(C)C)cs1` [Compound 5, Ritonavir], for which the “potency” value in test [2] was “dramatically less potent”. For the same compound, the “sensitivity compared with the parental HIV-1NL4-3” value in test [3] is recorded as “as sensitive”.

For the compound `CC(C)(C)NC(=O)[C@@H]1CN(Cc2cccnc2)CCN1C[C@@H](O)C[C@@H](Cc1ccccc1)C(=O)N[C@H]1c2ccccc2C[C@H]1O` [Compound 6, Indinavir], the “potency” value in test [2] is reported as “dramatically less potent”. The “IC50 fold greater than that of HIV-1NL4-3” value in test [3] is recorded as 7 fold.

As for `Cc1c(O)cccc1C(=O)N[C@@H](CSc1ccccc1)[C@H](O)CN1C[C@H]2CCCC[C@H]2C[C@H]1C(=O)NC(C)(C)C` [Compound 7, Nelfinavir], the “potency” value in test [2] was “dramatically less potent”. The “IC50 fold greater than that of HIV-1NL4-3” value in test [3] is given as 5 fold.

The values are drawn from patent publication US7285566B2, “Resistance-repellent retroviral protease inhibitors” (priority 2002, dated 2007).
